Data taken from patent publication US6884819B1, “Neuropathy remedies” (Teijin Limited, priority 1999, dated 2005).

How the values were obtained:
[1] = tested on: Alzheimer's dementia animal model by continuous intraventricular infusion of β protein; test: Step-through passive evasion test in rats with continuous intraventricular infusion of β-amyloid protein (learning and memory ability improvement effect); assay type: in vivo, Wistar rats
Text: A step-through passive evasive reaction apparatus composed of two chambers separated by a guillotine door, was used for the experimental apparatus. Namely, one of the chambers was a bright chamber composed of clear acrylic boards (floor: 15 cm×25 cm, height: 15 cm) while the other chamber was a dark chamber (of the same size) composed of black acrylic boards. In addition, stainless steel grids having a diameter of 4 mm were provided at intervals of 15 mm on the floor of the dark room, and connected to a shock generator for applying an electric shock. To begin with, after opening the guillotine door and allowing to freely explore the inside of the apparatus for 1 minute, the door was closed, the rat was placed in the bright chamber as an acquisition trial and the door was opened 30 seconds later. The door was closed after all four limbs of the rat entered the dark chamber followed immediately by the application of an electric shock. […] As a retention trial conducted 24 hours after the acquisition trial, the rat was placed in the bright chamber and the amount of time until all four limbs entered the dark chamber after the guillotine door was opened 30 seconds later was measured (step-through latency). […] The learning and memory ability improvement action of test compound A was measured using the evaluation methods of Reference Examples 1 and 2. […]

Wistar rats = test: Measurement of blood pressure lowering action (blood pressure and heart rate after intravenous injection without anesthesia); assay type: in vivo; parameters: Blood pressure (mmHg, ± standard error): unit not given here; details: for Blood pressure (mmHg, ± standard error): 0 min. value assigned 100
Method: Thirty five, male Wistar rats.
Cannulas were inserted into the left carotid artery for measuring blood pressure, and into the left jugular vein for intravenous injection of the test compounds, respectively. After being housed normally in their cages overnight following surgery, the animals were injected with the test solutions without anesthesia. Blood pressure and heart rate were measured immediately before dosing (0 minutes) and at 5, 30, 60, 120 and 240 minutes after dosing. The blood pressure at 0 minutes for each animals was assigned a value of 100, and measured values of blood pressure at each time were then normalized based on that value.

C57BL mice = test: Toxicity study, single administration into the caudal vein; assay type: in vivo; details: for Mortality: 0.03, 0.3, 3 mg/kg i.v., mice, 14 days observation; for Body weights: 0.03-3 mg/kg i.v., days 1, 3, 7 and 14 after dosing; for General condition starting on the day after dosing: all dose groups, day after dosing through day 14
Method: The test compound solutions were administered into the caudal vein at the rate of about 5 ml per minute. […] In addition, body weights were measured immediately before dosing and on days 1, 3, 7 and 14 after dosing.

[2] = 0.03 mg/kg i.v., 5 min. after dosing
[3] = 0.03 mg/kg i.v., 30 min. after dosing
[4] = 0.03 mg/kg i.v., 60 min. after dosing
[5] = 0.03 mg/kg i.v., 2 hr. after dosing
[6] = 0.03 mg/kg i.v., 4 hr. after dosing
[7] = 0.3 mg/kg i.v., 5 min. after dosing
[8] = 0.3 mg/kg i.v., 30 min. after dosing
[9] = 0.3 mg/kg i.v., 60 min. after dosing
[10] = 0.3 mg/kg i.v., 2 hr. after dosing
[11] = 0.3 mg/kg i.v., 4 hr. after dosing
[12] = 3 mg/kg i.v., 5 min. after dosing
[13] = 3 mg/kg i.v., 30 min. after dosing
[14] = 3 mg/kg i.v., 60 min. after dosing
[15] = 3 mg/kg i.v., 2 hr. after dosing
[16] = 3 mg/kg i.v., 4 hr. after dosing

Structure (SMILES) | Blood pressure (mmHg, ± standard error) (Wistar rats; [2]) | Blood pressure (mmHg, ± standard error) (Wistar rats; [3]) | Blood pressure (mmHg, ± standard error) (Wistar rats; [4]) | Blood pressure (mmHg, ± standard error) (Wistar rats; [5]) | Blood pressure (mmHg, ± standard error) (Wistar rats; [6]) | Blood pressure (mmHg, ± standard error) (Wistar rats; [7]) | Blood pressure (mmHg, ± standard error) (Wistar rats; [8]) | Blood pressure (mmHg, ± standard error) (Wistar rats; [9]) | Blood pressure (mmHg, ± standard error) (Wistar rats; [10]) | Blood pressure (mmHg, ± standard error) (Wistar rats; [11]) | Blood pressure (mmHg, ± standard error) (Wistar rats; [12]) | Blood pressure (mmHg, ± standard error) (Wistar rats; [13]) | Blood pressure (mmHg, ± standard error) (Wistar rats; [14]) | Blood pressure (mmHg, ± standard error) (Wistar rats; [15]) | Blood pressure (mmHg, ± standard error) (Wistar rats; [16]) | Mortality (C57BL mice) | Body weights (C57BL mice) | General condition starting on the day after dosing (C57BL mice) | other results
Cc1cccc(C[C@@H](O)/C=C/[C@H]2[C@H](O)CC3C=C(CCCCC(=O)O)C[C@@H]32)c1 (stereo partly drawn) [Test compound A, (15R)-16-(m-tolyl)-17,18,19,20-tetranorisocarbacycline] |  |  |  |  |  |  |  |  |  |  |  |  |  |  |  |  |  |  | Time until moved to dark chamber during retention trial Mean ± standard error ([1]; β-amyloid protein (1-42) 300 pmol/day + test compound 1.2 fmol/day, intraventricular osmotic pump, max observation 300 sec): 265.7 ± 32.6 (n = 6) sec.; Learning and memory ability improvement action ([1]; β-amyloid protein (1-42) infused rats, overall conclusion): improved learning and memory ability
COC(=O)CCCCC1=C[C@H]2C[C@@H](O)[C@H](/C=C/[C@@H](O)Cc3cccc(C)c3)[C@H]2C1 [Comparative Test Compound D, (15S)-16-(m-tolyl)-17,18,19,20-tetranorisocarbacycline methyl ester, reference compound] | 88.9 | 92.1 | 96.5 | 97.3 | 99.0 | 49.6 | 78.5 | 94.4 | 93.3 | 99.3 | 55.0 | 60.0 | 81.1 | 103.8 | 115.4 |  |  |  | Duration of decreased blood pressure (Wistar rats; 3 mg/kg and 0.3 mg/kg dose groups, i.v.): ≥ 30 min
COC(=O)CCCCC1=C[C@H]2C[C@@H](O)[C@H](/C=C/CCc3cccc(C)c3)[C@H]2C1 [Test compound C, 15-deoxy-16-(m-tolyl)-17,18,19,20-tetranorisocarbacycline methyl ester] |  |  |  |  |  |  |  |  |  |  |  |  |  |  |  | none of the animals died | no significant fluctuations | no abnormalities observed in any of the groups | General condition on the day of dosing (C57BL mice; all dose groups (0.03, 0.3, 3 mg/kg i.v.)): no abnormalities observed in any of the groups
COC(=O)CCCCC1=C[C@H]2C[C@@H](O)[C@H](/C=C/[C@H](O)Cc3cccc(C)c3)[C@H]2C1 [Test compound B, (15R)-16-(m-tolyl)-17,18,19,20-tetranorisocarbacycline methyl ester] | 105.8 | 103.4 | 103.6 | 104.5 | 100.5 | 92.9 | 97.7 | 97.7 | 98.5 | 98.0 | mild decrease | 99.4 | 101.9 | 102.7 | 101.0 | none of the animals died | no significant fluctuations | no abnormalities observed in any of the groups | Time until decreased movement disappeared after dosing (C57BL mice; 3 mg/kg dose group, i.v.): ≤ 30 min; General condition on the day of dosing (C57BL mice; 3 mg/kg dose group, i.v., starting immediately after dosing): decreased movement; Blood pressure change immediately after dosing (Wistar rats; 3 mg/kg dose group, i.v.): decrease in blood pressure; Heart rate change immediately after dosing (Wistar rats; 3 mg/kg dose group, i.v.): increase in heart rate; Time after dosing at which blood pressure and heart rate returned to normal (Wistar rats; 3 mg/kg dose group, i.v.): 30 min; Blood pressure (mmHg, ± standard error) (Wistar rats; 3 mg/kg i.v., 5 min. after dosing, listed as Test comp. B): 80.4; Fluctuations in blood pressure and heart rate (Wistar rats; 0.3 and 0.03 mg/kg dose groups, i.v.): no significant fluctuations; Effect on the circulatory system (overall conclusion) (Wistar rats; rats, i.v. 0.03-3 mg/kg): extremely mild effect
